Source: patent US8802638B1, “Flavonoid treatment of glycogen synthase kinase-based disease” (University of South Florida, priority 2007, dated 2014)

Experiments:
GSK-3α/β [1] = target: T1, GSK-3α/β (Mus musculus, UniProt Q2NL51); assay: Western blot of phosphorylated GSK-3α/β forms in Tg2576-derived neuronal cells; format: cell-based, mice; parameters: endogenous in cells; host or cells: primary neuronal cells derived from Tg2576 mice; conditions: 20 μM
Experimental: (§1) Cultured cells or mouse brain were lysed in ice-cold lysis buffer described above, and an aliquot corresponding to 50 μg of total protein was electrophoretically separated using 12% Tris-HCl or 16.5% Tris-tricine gels. Electrophoresed proteins were then transferred to PVDF membranes, washed in dH2O, and blocked for 1 hr at ambient temperature in Tris-buffered saline (TBS; Bio-Rad) containing 5% (w/v) non-fat dry milk. After blocking, membranes were hybridized for 1 hr at ambient temperature with various primary antibodies. Membranes were then washed 3× for 5 min each in dH2O and incubated for 1 hr at ambient temperature with the appropriate HRP-conjugated secondary antibody (1:1,000). […] Densitometric analysis was done as previously described using a FluorS Multiimager with Quantity One™ software (39). […] Antibodies used for Western blot included the APP-carboxyl-terminal antibody (1:50)), amino-terminal APP antibody (clone 22C11), or 6E10 (1:1,000), or actin antibody (1:1,500; as an internal reference control). γ-secretase activity was quantified in cell lysates using available kits based on secretase-specific peptides conjugated to fluorogenic reporter molecules. […]

GSK-3α/β [2] = target: T1, GSK-3α/β; assay: Western blot of phosphorylated GSK-3α/β forms in SweAPP N2a cells; format: cell-based, murine; parameters: endogenous in cells; host or cells: SweAPP N2a cells; conditions: 20 μM
Experimental: as §1

GSK-3α/β [3] = assay: GSK-3 activation in brain homogenates of luteolin-treated Tg2576 mice; format: in vivo; conditions: 20 mg/kg i.p. daily for 30 days
Experimental: Sixteen (8♂/8♀) Tg2576 mice (Taconic, Germantown, N.Y.) were used; 8 mice received luteolin, and the other 8 received phosphate buffered saline (PBS). Beginning at 8 months of age, Tg2576 mice were intraperitoneally injected with luteolin (20 mg/kg) or PBS daily for 30 days based on previously described methods. These mice were then sacrificed at 9 months of age for analyses of Aβ levels and Aβ load in the brain according to previously described methods. Animals were housed and maintained in the College of Medicine Animal Facility at the University of South Florida (USF), and all experiments were in compliance with protocols approved by the USF Institutional Animal Care and Use Committee.
Cultured cells or mouse brain were lysed in ice-cold lysis buffer described above, and an aliquot corresponding to 50 μg of total protein was electrophoretically separated using 12% Tris-HCl or 16.5% Tris-tricine gels. […] Densitometric analysis was done as previously described using a FluorS Multiimager with Quantity One™ software (39). […] Antibodies used for Western blot included the APP-carboxyl-terminal antibody (1:50)), amino-terminal APP antibody (clone 22C11), or 6E10 (1:1,000), or actin antibody (1:1,500; as an internal reference control). γ-secretase activity was quantified in cell lysates using available kits based on secretase-specific peptides conjugated to fluorogenic reporter molecules. […]

γ-secretase = target: T2, γ-secretase (Mus musculus, UniProt P49769); assay: fluorometric assay for γ-secretase cleavage activity in SweAPP N2a cell lysates; format: cell-based, murine; conditions: relative to untreated control
T2 construct: endogenous in cells; host or cells: SweAPP N2a cells (lysates of treated cells)
Experimental: (§2) Cultured cells or mouse brain were lysed in ice-cold lysis buffer described above, and an aliquot corresponding to 50 μg of total protein was electrophoretically separated using 12% Tris-HCl or 16.5% Tris-tricine gels. Electrophoresed proteins were then transferred to PVDF membranes, washed in dH2O, and blocked for 1 hr at ambient temperature in Tris-buffered saline (TBS; Bio-Rad) containing 5% (w/v) non-fat dry milk. After blocking, membranes were hybridized for 1 hr at ambient temperature with various primary antibodies. Membranes were then washed 3× for 5 min each in dH2O and incubated for 1 hr at ambient temperature with the appropriate HRP-conjugated secondary antibody (1:1,000). Antibodies were obtained against the amino-terminus and carboxyl-terminus of PS1 (Chemicon, Temecula, Calif.), amino-terminus and carboxyl-terminus of APP (22C11), actin (Roche, Basel, Switzerland), Aβ (6E10, 48G) (Signet Laboratories, Dedham, Mass.), phosphor-GSK3α (ser^21, clone BK202) (Upstate, Lake Placid, N.Y.), phospho-GSK3α/β (pTyr^279/216) (Sigma), phospho-GSK-3β (Ser^9) (Sigma) and total GSK-3α/β (Sigma). […] Densitometric analysis was done as previously described using a FluorS Multiimager with Quantity One™ software (39). […] Antibodies used for Western blot included the APP-carboxyl-terminal antibody (1:50)), amino-terminal APP antibody (clone 22C11), or 6E10 (1:1,000), or actin antibody (1:1,500; as an internal reference control). γ-secretase activity was quantified in cell lysates using available kits based on secretase-specific peptides conjugated to fluorogenic reporter molecules.
Due to the implications on γ-secretase activity, luteolin's effect on SweAPP N2a cells was analyzed using a fluorometric assay for γ-cleavage.
Cultured cells or mouse brain were lysed in ice-cold lysis buffer described above, and an aliquot corresponding to 50 μg of total protein was electrophoretically separated using 12% Tris-HCl or 16.5% Tris-tricine gels. […] Densitometric analysis was done as previously described using a FluorS Multiimager with Quantity One™ software. […]

[4] = system: primary neuronal cells derived from Tg2576 mice; assay: APP proteolysis (Aβ ELISA, IP, APP CTF Western blot) in Tg2576 mouse-derived primary neuronal cells; format: cell-based; conditions: 12 hrs
Experimental: as §2, with “(Sigma). All antibodies were diluted in TBS containing 5% (w/v) of non-fat dry milk.” for “(Sigma).”
SweAPP N2a cells and primary neuronal cells derived from Tg2576 mice were treated with varying doses of luteolin to examine luteolin's effect on APP proteolysis. Cellular extracts were collected and analyzed using immunoprecipitation (IP), Western blot, and ELISA. […] SweAPP N2a and primary Tg2576-derived neuronal cells CTF profiles were analyzed following luteolin treatment to determine at which level luteolin impacts amyloid processing.

T1 sequence (Q2NL51 2-490): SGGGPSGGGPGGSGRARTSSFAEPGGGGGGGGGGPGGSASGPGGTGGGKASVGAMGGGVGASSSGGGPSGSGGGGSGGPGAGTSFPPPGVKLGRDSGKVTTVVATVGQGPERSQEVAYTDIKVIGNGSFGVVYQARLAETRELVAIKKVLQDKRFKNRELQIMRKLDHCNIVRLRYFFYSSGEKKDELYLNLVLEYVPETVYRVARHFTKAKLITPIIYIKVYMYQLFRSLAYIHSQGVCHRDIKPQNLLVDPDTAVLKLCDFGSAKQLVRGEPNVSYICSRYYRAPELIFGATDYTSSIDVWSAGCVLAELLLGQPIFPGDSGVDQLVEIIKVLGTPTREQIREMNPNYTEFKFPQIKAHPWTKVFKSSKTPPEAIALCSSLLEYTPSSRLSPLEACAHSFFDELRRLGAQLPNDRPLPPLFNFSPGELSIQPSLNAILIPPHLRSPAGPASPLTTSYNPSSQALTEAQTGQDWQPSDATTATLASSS

levels of serine 21-phosphorylated, inactive GSK-3α isoforms (GSK-3α/β [1]): increased the levels | levels of serine 21-phosphorylated, inactive GSK-3α isoforms (GSK-3α/β [2]; SweAPP N2a cells): increased the levels
Compound: O=c1cc(-c2ccc(O)c(O)c2)oc2cc(O)cc(O)c12 [luteolin]
levels of tyrosine 279 phosphorylated active GSK-3α isoforms (GSK-3α/β [2]; through 3 hrs (FIGS. 13 and 17)): concurrently decreased in time-dependent manner | GSK-3α/β active isoforms (ratio of phosphorylated to holo GSK-3) (GSK-3α/β [3]): reduced when compared to control | γ-secretase cleavage activity (γ-secretase): lowered γ-secretase cleavage activity in both a dose and time dependent fashion | accumulation of both α and β CTFs (increase over control) ([4]; dose dependent, Western blot densitometry): 2-3 fold | Aβ1-40, 42 peptide generation abrogated ([4]; luteolin 20 μM): > 70% | Aβ1-40, 42 peptide generation abrogated ([4]; luteolin 40 μM): > 85%
